This note sets out measurements from patent US5246957A, “N-imidazolyl derivatives of substituted indole” (Farmitalia Carlo Erba S.r.l., priority 1991, dated 1993).

Read-outs that look alike come from different tables or passages of the source.

Test [1] deals with TxB2 synthesis. Briefly: TxB2 Synthesis Inhibition in vitro, in whole blood of normal rats. The format is cell-based, Sprague Dawley rats. As to conditions: Rattus norvegicus, read-out: In vitro effect on TxB2 synthesis in normal rats, IC50 (whole blood). As for the experimental part:
(§1) The effects of a representative group of compounds of the invention were evaluated, in comparison with known compounds, on TxB2 synthesis inhibition in vitro, in whole blood of normal rats, and on TxA2 antagonism in a binding assay in washed human platelets.
TxB2 Synthesis Inhibition
Blood was withdrawn from the abdominal aorta of normal Sprague Dawley rats (Charles River Italy) under light ether anaestesia. The blood was immediately divided in portions of 0.5 ml and distributed in glass tubes each containing a concentration of the test compound, or of the reference compounds.
Samples were then allowed to clot for 1 hour at 37° C., centrifuged at 3000 rpm for 10 min, and serum collected and stored at -20° C. until assayed.

In test [2] the target is T1, TxA2 receptor (Homo sapiens, UniProt P21731).
T1 construct: endogenous in cells; host or cells: washed platelets from blood of healthy human volunteers
T1 sequence (P21731 1-343): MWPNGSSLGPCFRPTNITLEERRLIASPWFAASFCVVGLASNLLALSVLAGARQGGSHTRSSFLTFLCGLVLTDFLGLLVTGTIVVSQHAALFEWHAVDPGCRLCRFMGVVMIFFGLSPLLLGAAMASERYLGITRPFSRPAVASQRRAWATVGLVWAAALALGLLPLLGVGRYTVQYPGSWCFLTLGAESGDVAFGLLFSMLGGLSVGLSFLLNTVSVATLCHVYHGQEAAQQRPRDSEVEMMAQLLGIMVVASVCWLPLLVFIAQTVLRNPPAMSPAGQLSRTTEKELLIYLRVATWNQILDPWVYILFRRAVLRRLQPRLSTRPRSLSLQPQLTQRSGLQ
Nature of the test: Displacement of [^3 H]-SQ 29,548 Binding to Washed Human Platelets. As to conditions: for affinity for the receptor compared with reference standards: versus BM 13505 and BM 13177; for IC50: washed human platelets, [^3 H]-SQ 29,548 5 nM, 30 min at 25° C., pH 7.4, n = 3, read-out: ^3 H SQ 29548 binding displacement (washed human platelet) IC50. As for the experimental part:
as §1
Displacement of [^3 H]-SQ 29,548 Binding to Washed Human Platelets
Blood from healthy volunteers of both sexes who had not taken any medication for at least 10 days was collected into one-tenth volume of acid citrate dextrose containing indomethacin (28 μM). Platelet rich plasma (PRP), obtained by centrifugation of the blood at 200× g for 20 min, was washed twice (1000× g for 10 min). The platelets were then resuspended in Tyrode-Hepes buffer (pH 7.4) to a final concentration of […] and incubated for 0-60 min at 25° with [^3 H]-SQ 29,548 (5 nM). For displacement experiments various concentrations (10^-9 -10^-4 M) of competing ligands were added and incubated for 30 min at 25° C. […] After the incubation, 4 ml of ice-cold TRIS-HCl buffer ( 10 mM, pH 7.4) was added to each tube and the reaction mixture was immediately filtered by suction through a Whatman GF/C glass filter disc which was washed 2 times with ice-cold TRIS-HCl (4 ml) and counted for radioactivity by a Packard β-counter.
The binding data were analysed by computerized non-linear curve fitting using the Ligand program and expressed as IC50.

[3] abbreviates: whole blood of normal rats, clotted 1 hour at 37° C., TxB2 by RIA.

With `CC(=O)Oc1ccccc1C(=O)O` [ASA, acetylsalicilic acid], the IC50 in test [1] (1 h) was 31000 nM.
For `O=C(O)c1ccc(OCCn2ccnc2)cc1` [Dazoxiben, dazoxiben], the IC50 in test [1] (setting [3]) was found to be 1200 nM.
Consider `Cc1c(CCC(=O)O)n(Cc2ccc(-n3ccnc3)cc2)c2ccc(F)cc12` [FCE 27005, 5-Fluoro-1-[[4-(1H-imidazol-1-yl)phenyl]methyl]-3-methyl-1H-indole-2-propanoic acid], for which, in test [2], the “affinity for the receptor compared with reference standards” value is “affinity for the receptor greater than those of compounds BM 13505 and BM 13177”; the 50% inhibitory concentration (IC50) came out at 32.9 nM.
Turning to `Cc1c(CCCC(=O)O)n(Cc2ccc(-n3ccnc3)cc2)c2ccc(F)cc12` [FCE 27093, 5-Fluoro-1-[[4-(1H-imidazol-1-yl)phenyl]methyl]-3-methyl-1H-indole-2-butanoic acid], in test [1] (setting [3]), the IC50 stood at 1190 nM. For the same compound, in test [2], the “affinity for the receptor compared with reference standards” value was “affinity for the receptor greater than those of compounds BM 13505 and BM 13177”; the concentration for half-maximal inhibition (IC50) was determined as 11.9 nM.
